# Measured values: BindingDB's records for doi:10.7270/Q2J38R0R (Burnham Center For Chemical Genomics, 2010)
# Biological target: Intestinal-type alkaline phosphatase (Mus musculus, UniProt P24822)
# Experiment: mouse intestinal alkaline phosphatase activators, dose response, biochemical, luminescence, uHTS hits (AID 488783)
# Chain of Intestinal-type alkaline phosphatase (P24822 whole entry, looked up): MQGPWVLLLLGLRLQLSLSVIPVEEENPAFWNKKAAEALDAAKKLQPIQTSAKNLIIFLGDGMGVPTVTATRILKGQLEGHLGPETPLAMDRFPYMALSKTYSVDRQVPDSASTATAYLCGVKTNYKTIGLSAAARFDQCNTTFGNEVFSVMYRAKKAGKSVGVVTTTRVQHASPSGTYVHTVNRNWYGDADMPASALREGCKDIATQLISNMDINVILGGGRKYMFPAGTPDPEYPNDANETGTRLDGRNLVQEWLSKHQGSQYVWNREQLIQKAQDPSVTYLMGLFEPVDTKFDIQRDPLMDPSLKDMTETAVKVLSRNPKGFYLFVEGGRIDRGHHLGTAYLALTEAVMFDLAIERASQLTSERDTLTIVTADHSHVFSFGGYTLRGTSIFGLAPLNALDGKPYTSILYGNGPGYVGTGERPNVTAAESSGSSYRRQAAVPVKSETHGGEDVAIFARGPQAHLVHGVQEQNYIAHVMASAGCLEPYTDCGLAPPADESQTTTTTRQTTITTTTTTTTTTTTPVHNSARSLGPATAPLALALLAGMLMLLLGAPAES
row,EC50,SMILES
1,58.7 µM,Cc1cc(=O)[nH]c(N=NCc2ccc(O)c(O)c2)n1 [MLS001194906]
2,4.96 µM,"O=C(NN=CC1=CC(=O)C(=O)CC1)NN=CC1=CC(=O)C(=O)CC1 [1,3-bis[[(Z)-(3-hydroxy-4-oxocyclohexa-2,5-dien-1-ylidene)methyl]amino]urea]"
3,9.93 µM,"O=C1CC(=O)c2c(O)cc(O)c(O)c2C1=O [4,5,7,8-tetrahydroxy-1,2-naphthoquinone]"
4,17.5 µM,CN(CCO)c1ccc(CN=Nc2ccc([N+](=O)[O-])cc2S(=O)(=O)Nc2ccccc2C(=O)O)cc1
